Experimental data from PubChem BioAssay AID1549 (Sanford-Burnham Center for Chemical Genomics, 2009).
Activity calls are given as the source filed them. No rule for the calls is given here. Where a SMILES comes first, the peptide text is derived from it.

The compounds below were run against Influenza A virus M2 proton channel (A/TW/4845/1999 H1N1) (assay: M2 proton channel binding, NMR based, influenza A virus H1N1 strain (AID 1549)). Conditions: NMR binding screen, M2 protein.

Structure (SMILES)	Kd
O=C1C(=O)N(CNc2ncccn2)c2ccccc21	> 4 mM (inactive)
O=C(NCc1cccs1)c1ccncc1	> 4 mM (inactive)
COc1cc(C2NC(=S)NC(C)=C2C(C)=O)ccc1O (centres undefined)	> 4 mM (inactive)
O=C(NCc1ccccc1Cl)c1cnn2cccnc12	> 4 mM (inactive)
CSc1cc(C)[nH]c(=O)n1	> 4 mM (inactive)
CC(=O)Nc1cccc(-c2n[nH]c(=S)n2C)c1	> 4 mM (inactive)
NS(=O)(=O)c1ccc(N=Cc2cccs2)cc1	> 4 mM (inactive)
Cc1cccc(NS(=O)(=O)c2cccs2)n1	> 4 mM (inactive)
O=C1CC(N2CCC(O)CC2)C(=O)N1c1ccc(F)cc1 (centres undefined)	> 4 mM (inactive)
C[C@]12CCC(=O)C=C1CCC1C2C(=O)C[C@@]2(C)C1CC[C@]2(O)C(=O)CO (some centres undefined)	> 4 mM (inactive)
NC(=O)CSc1nnc(-c2cccnc2)o1	> 4 mM (inactive)
CCNC(=O)CC[C@H](N)C(=O)O	> 4 mM (inactive)
Cn1ncc(NC(=O)Nc2ccc(F)cc2F)c1C(N)=O	> 4 mM (inactive)
CCOC(=O)N1CCN(c2ncnc3c2cnn3C)CC1	> 4 mM (inactive)
O=C(Nn1cnnc1)c1ccccc1-c1ccccc1	> 4 mM (inactive)
COC(=O)CC1NC2CCCCC2NC1=O (centres undefined)	> 4 mM (inactive)
CN1CCC(N2CCCC(C(N)=O)C2)CC1 (centres undefined)	> 4 mM (inactive)
CC(=O)Nc1ccccc1OCC(N)=O	> 4 mM (inactive)
CN1C(=O)/C(=C/c2ccc(O)cc2O)SC1=S	> 4 mM (inactive)
CC(C)(C)CC(=O)N1CCC(C(N)=O)CC1	> 4 mM (inactive)
CNC(=S)Nc1cccc(C(=O)O)c1	> 4 mM (inactive)
O=C(O)c1ccc(NC(=O)c2cccs2)cc1	> 4 mM (inactive)
Cc1sc2nc(NCCO)[nH]c(=O)c2c1C	> 4 mM (inactive)
O=C(O)CNc1ncnc2nc[nH]c12	> 4 mM (inactive)

Structure (SMILES)	Kd
CC(=O)c1ccc(N2C(=O)C(C(C)C)NC2=S)cc1 (centres undefined)	> 4 mM (inactive)
O=C(CS(=O)(=O)c1ccccc1)N1CCCCCC1	> 4 mM (inactive)
O=C(NCCCSc1ncccn1)Nc1ncccn1	> 4 mM (inactive)
O=S1(=O)C=CC(N2CCCCC2)C1 (centres undefined)	> 4 mM (inactive)
O=c1cc(-c2ccc(O)cc2)[nH]c(=S)[nH]1	> 4 mM (inactive)
CSc1nc(NC(C)(C)C)nc(N2CCOCC2)n1	> 4 mM (inactive)
O=C1NC(=O)/C(=C\c2ccncc2)S1	> 4 mM (inactive)
Nc1ccc2c(c1)CCC2=O	> 4 mM (inactive)
O=C(Nc1nnc(-c2ccccc2Cl)o1)c1ccco1	> 4 mM (inactive)
Cc1ccc(SCCN2C(=O)NC(C)(C)C2=O)cc1	> 4 mM (inactive)
Cc1ccc(C)n1NC(=O)c1cccs1	> 4 mM (inactive)
CN1CCN(C2CCN(Cc3ccccc3)CC2)CC1	> 4 mM (inactive)
CC1=C(/C=C/C(C)=C/C=C/C(C)=C/CO)C(C)(C)CCC1	> 4 mM (inactive)
C=C[C@@]1(C)CC(=O)[C@@]2(O)[C@](C)(O1)[C@@H](OC(C)=O)[C@@H](O)C1C(C)(C)CC[C@H](O)[C@@]12C (some centres undefined)	> 4 mM (inactive)
Nc1nc(-c2nc3ccccc3[nH]2)cs1	> 4 mM (inactive)
Cc1ccc(/C=N/NC(N)=O)o1	> 4 mM (inactive)
Cn1c(C(=O)O)ccc1S(N)(=O)=O	> 4 mM (inactive)
Oc1ccc(C2SCCS2)cc1	> 4 mM (inactive)
CCc1sc(C(=O)NC)cc1Br	> 4 mM (inactive)
COc1ccc(C(=O)CC(=O)O)c2c1C=CC(C)(C)O2	> 4 mM (inactive)
O=C(O)CC1NCCNC1=O (centres undefined)	> 4 mM (inactive)
Nc1cc(=O)[nH]c(=S)n1-c1ccc(F)cc1	> 4 mM (inactive)
O=c1c(-c2cc(O)c(O)c(O)c2)coc2cc(O)c(O)c(O)c12	> 4 mM (inactive)
Cn1ncc(SCc2ccco2)c(Cl)c1=O	> 4 mM (inactive)

Structure (SMILES)	Kd
c1ccc(-c2noc(-c3ccc4c(c3)OCO4)n2)nc1	> 4 mM (inactive)
O=C(O)CC12CC3CC(CC(O)(C3)C1)C2	> 4 mM (inactive)
COc1nc(C)ccc1-c1noc(-c2ccco2)n1	> 4 mM (inactive)
CC(=O)c1c(C)nc2ccccc2c1N	> 4 mM (inactive)
CC(C)CC(=O)NC1CCSC1=O (centres undefined)	> 4 mM (inactive)
O=C(Nc1ccon1)c1sc2cc(F)ccc2c1Cl	> 4 mM (inactive)
Cc1cc(-c2ccc(Cl)cc2)n2nc(N)nc2n1	> 4 mM (inactive)
OCc1ccccc1N1CCOCC1	> 4 mM (inactive)
O=C1c2ccccc2C(=O)c2c(O)c(O)cc(O)c21	> 4 mM (inactive)
CCN1CCN(CCCNc2ncnc3nc[nH]c23)CC1	> 4 mM (inactive)
CN(Cc1nc2ccccc2n1C)S(C)(=O)=O	> 4 mM (inactive)
Cc1cc(C)nc(N2CC(=O)N(C)C2=N)n1	> 4 mM (inactive)
CC1(O)CC2C=CC1C2 (centres undefined)	> 4 mM (inactive)
COC(=O)c1cccc(C(F)(F)F)c1	> 4 mM (inactive)
O=c1c(O)cc([C@H]2Oc3cc(O)cc(O)c3C[C@H]2O)cc2c([C@H]3Oc4cc(O)cc(O)c4C[C@H]3O)cc(O)c(O)c12	> 4 mM (inactive)
CC(=O)NN1C(=O)c2cccc3cccc(c23)C1=O	> 4 mM (inactive)
O=C(Nc1nncs1)C1(c2ccccc2)CCCC1	> 4 mM (inactive)
CCc1c(C(=O)Nc2ccncc2)csc1C	> 4 mM (inactive)
CNC(Cc1c[nH]c2ccccc12)C(=O)O (centres undefined)	> 4 mM (inactive)
CC(=O)NC12CC3CC(C)(C1)CC(NC(C)=O)(C3)C2	> 4 mM (inactive)
CCn1c(-c2c[nH]c3ccccc23)n[nH]c1=S	> 4 mM (inactive)
O=C(O)c1ccccc1N1CCOCC1	> 4 mM (inactive)
CN(C)C(=S)Nc1ccccc1N1CCOCC1	> 4 mM (inactive)
CN(C)C(=O)CSc1nc(N)cc(=O)[nH]1	> 4 mM (inactive)

Structure (SMILES)	Kd
CC(C)=CCc1c(O)cc2oc(C)cc(=O)c2c1O	> 4 mM (inactive)
CC(=O)NC(NC(C)=O)c1ccccc1	> 4 mM (inactive)
CC(C)C(C)/C=C/C(C)[C@H]1CCC2C3=CCC4CC(=O)CC[C@]4(C)C3CC[C@@]21C (some centres undefined)	> 4 mM (inactive)
COCCOc1nc2ccccc2nc1C	> 4 mM (inactive)
CCn1c(C)c(C(C)=O)c(N2CCN(C)CC2)nc1=S	> 4 mM (inactive)
Cn1cnc([N+](=O)[O-])c1Sc1ncnc2nc[nH]c12	> 4 mM (inactive)
Cc1nn2c(=O)nc3sc4c(c3c2[nH]c1=O)CCCC4	> 4 mM (inactive)
O=C(/C=C/C=C/c1ccc2c(c1)OCO2)N1CCCCC1	> 4 mM (inactive)
CC1(C)Cc2nc3n[nH]c(N)c3cc2CO1	> 4 mM (inactive)
O=C(Cc1ccc(F)cc1)Nc1ncccn1	> 4 mM (inactive)
O=c1cnnc(N2CCCCC2)[nH]1	> 4 mM (inactive)
O=C1Nc2ccc(S(=O)(=O)NCCO)c3cccc1c23	> 4 mM (inactive)
COc1ccc(NC(=O)CSc2nccc(=O)[nH]2)cc1	> 4 mM (inactive)
CCOC(=O)c1c(SC)nc(=O)[nH]c1C	> 4 mM (inactive)
OC1CCN(c2nccc(C(F)(F)F)n2)CC1	> 4 mM (inactive)
Cc1ccccc1N1C(=O)CC(=O)NC1=O	> 4 mM (inactive)
NC(=O)C1CCN(C(=S)c2cccs2)CC1	> 4 mM (inactive)
COc1ccc(C)cc1S(=O)(=O)Nc1ccccc1C	> 4 mM (inactive)
CC(=O)N(c1ccccc1)C1C=CS(=O)(=O)C1 (centres undefined)	> 4 mM (inactive)
O=C1CSC(=Nc2ccccc2)N1	> 4 mM (inactive)
CSc1ccccc1NC(=O)c1cccnc1	> 4 mM (inactive)
OCc1ccc2c(c1)OCO2	> 4 mM (inactive)
CC(=O)O[C@@H]1CC2C(C)(C)[C@H](O)C[C@H](O)[C@]2(C)C2CC[C@@]3(C)C(=CC(=O)O[C@H]3c3ccoc3)[C@@]21C (some centres undefined)	> 4 mM (inactive)
Cc1occc1C(=O)NCc1ccncc1	> 4 mM (inactive)

Structure (SMILES)	Kd
CN1CCN(C(=O)c2cc(-c3ccccc3)on2)CC1	> 4 mM (inactive)
CSc1ccccc1NC(=O)c1ccc(C)o1	> 4 mM (inactive)
COc1nc(-c2ccccc2)ccc1-c1noc(C)n1	> 4 mM (inactive)
c1ccc(-c2nnc(CNCc3ccco3)o2)cc1	> 4 mM (inactive)
CC1(C)Oc2ccc3ccc(=O)oc3c2CC1O (centres undefined)	> 4 mM (inactive)
Cc1nnsc1C(=O)Nc1ccc(C(N)=O)cc1	> 4 mM (inactive)
Cc1cccn2cc(CNc3ccccc3)nc12	> 4 mM (inactive)
CC(=O)O[C@H]1C[C@@H](OC(C)=O)C(C)(C)C2C[C@@H](OC(C)=O)[C@]3(C)C(CC[C@@]4(C)[C@H](c5ccoc5)OC(=O)[C@H]5O[C@]543)[C@]21C (some centres undefined)	> 4 mM (inactive)
Cc1ccc(C(=O)Nc2ccncc2)o1	> 4 mM (inactive)
Nc1[nH]c(=S)[nH]c(=O)c1-c1ccccc1	> 4 mM (inactive)
COc1ccc2[nH]c(O)c(NC(C)=O)c2c1	> 4 mM (inactive)
Oc1ccccc1N1CCOCC1	> 4 mM (inactive)
CC(=O)Nc1ccc(NC(=O)c2ccncc2)cc1	> 4 mM (inactive)
CC(=O)N[C@@H](CC(=O)O)C(=O)N[C@@H](CCC(=O)O)C(=O)O (Ac-Asp-Glu-OH)	> 4 mM (inactive)
N#Cc1cn(CC(=O)N2CCCC2)c2ccccc12	> 4 mM (inactive)
COc1cc(/C=C/C(=O)O)cc(OC)c1OC	> 4 mM (inactive)
O=c1cccc2n1C[C@H]1CNCC2C1	> 4 mM (inactive)
COc1ccc([C@H]2Oc3c(I)c(OC)cc(OC)c3C[C@@H]2O)cc1OC	> 4 mM (inactive)
NC(=O)Cn1cnc(-c2ccc(F)cc2)c1	> 4 mM (inactive)
Cn1cnc2c(Cl)ncnc21	> 4 mM (inactive)
C=C1C[C@]23C[C@@]1(O)CC[C@H]2[C@@]12C=C[C@H](O)C(C)(C(=O)O1)[C@H]2[C@@H]3C(=O)O	> 4 mM (inactive)
CN1CCN(C(=O)C2CCCNC2)CC1 (centres undefined)	> 4 mM (inactive)
O=C1CC(=O)N(Cc2ccco2)C(=S)N1	> 4 mM (inactive)
